Values quoted from earlier work as cited in paper PMC4810081, “Venetoclax (ABT-199) Might Act as a Perpetrator in Pharmacokinetic Drug–Drug Interactions” (Pharmaceutics, 2016).

Molecular target: T1, BCRP (Homo sapiens, UniProt Q9UNQ0)
T1 construct: expressed in transfected cells; host or cells: MDCKII-BCRP (gift of A. H. Schinkel and P. Borst)
Set-up: method as in PMID 20222053
Details: control compound; read-out: IC50 BCRP inhibition, control compound; cited from earlier work

T1 sequence (Q9UNQ0 whole entry): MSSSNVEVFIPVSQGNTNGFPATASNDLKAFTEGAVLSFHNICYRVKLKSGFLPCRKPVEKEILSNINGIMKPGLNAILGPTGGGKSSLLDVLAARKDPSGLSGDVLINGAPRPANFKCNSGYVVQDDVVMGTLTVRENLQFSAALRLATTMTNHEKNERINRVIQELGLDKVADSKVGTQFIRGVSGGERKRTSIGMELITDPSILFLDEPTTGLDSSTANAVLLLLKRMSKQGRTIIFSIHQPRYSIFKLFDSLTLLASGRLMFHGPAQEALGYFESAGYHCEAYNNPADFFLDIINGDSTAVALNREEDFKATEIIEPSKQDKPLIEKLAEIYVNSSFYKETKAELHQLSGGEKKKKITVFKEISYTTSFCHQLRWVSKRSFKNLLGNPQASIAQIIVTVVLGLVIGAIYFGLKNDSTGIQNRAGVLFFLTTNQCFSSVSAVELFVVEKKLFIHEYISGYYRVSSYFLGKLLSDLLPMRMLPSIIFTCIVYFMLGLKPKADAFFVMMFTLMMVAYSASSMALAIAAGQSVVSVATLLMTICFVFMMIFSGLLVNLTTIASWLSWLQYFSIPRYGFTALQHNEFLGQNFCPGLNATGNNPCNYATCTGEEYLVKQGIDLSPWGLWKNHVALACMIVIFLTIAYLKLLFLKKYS

In the case of `COc1ccc2c3c([nH]c2c1)[C@H](C=C(C)C)N1C(=O)[C@@H]2CCCN2C(=O)[C@@H]1C3` [FTC, fumitremorgin C], the IC50 is listed as 700 ± 300 nM.
